The values below come from patent publication US20230203045A1, “INHIBITORS OF NEK7 KINASE” (Halia Therapeutics, Inc., priority 2020, published 2023).

Molecules are shown by their SMILES.

The target in the experiment is T1, full-length recombinant human NEK7 (Homo sapiens, UniProt Q8TDX7).
T1 construct: full-length recombinant human NEK7; GST (N); purchased SignalChem Nab 09-10G; host or cells: Sf9 insect cells (baculovirus)
T1 sequence (Q8TDX7 whole entry): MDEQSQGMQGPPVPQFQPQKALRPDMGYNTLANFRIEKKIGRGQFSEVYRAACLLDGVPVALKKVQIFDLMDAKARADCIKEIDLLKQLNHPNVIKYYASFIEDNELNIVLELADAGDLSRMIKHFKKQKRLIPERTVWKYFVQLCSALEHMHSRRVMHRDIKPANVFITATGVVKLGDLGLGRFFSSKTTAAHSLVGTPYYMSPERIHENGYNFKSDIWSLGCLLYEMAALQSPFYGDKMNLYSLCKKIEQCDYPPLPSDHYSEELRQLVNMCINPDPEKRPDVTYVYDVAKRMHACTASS
Nature of the experiment: NEK7 Enzymatic Assay. Format: biochemical. The conditions noted are these: casein substrate, [33P]-ATP, 2 hours at room temperature. The procedure: Casein substrate (from bovine milk, hydrolyzed and partially dephosphorylated mixture of α, β and κ caseins, obtained from Sigma Aldrich, catalogue #C4765, diluted in distilled water to a final concentration of 1 mg/mL) and full-length recombinant human NEK7 (expressed by baculovirus in Sf9 insect cells using a N-terminal GST tag, obtained from SignalChem, catalogue #Nab 09-10G, 0.1 μg/μL) were mixed in assay buffer (20 mM Hepes pH 7.5, 10 mM MgCl2, 1 mM EGTA, 0.02% Brij35, 0.02 mg/ml BSA, 0.1 mM Na3VO4, 2 mM DTT, 1% DMSO). Compounds of interest (serial 3-fold dilution in DMSO from 10 μM to 0.5 nM) or vehicle (1% DMSO) were dispensed into the kinase reaction mixture by Acoustic technology (Echo550; nanoliter range). After incubation at room temperature for 20 minutes, the kinase reaction was initiated by addition of [^33P]-ATP (specific activity 10 μCi/μl) and the mixture was incubated at room temperature for 2 hours. The reaction was then stopped by spotting the reaction mixture on strips of phosphocellulose P81 paper. Following washing, the radioactivity of the P81 paper was measured and kinase activity data were expressed as the percent remaining kinase activity in test samples compared to vehicle reactions. IC50 values and curve fits were obtained using Prism (GraphPad Software).
For `CC(C)n1nc(-c2ccc(NC(=O)Nc3cc(C(C)(C)C)no3)c(Cl)c2)c2c(N)ncnc21` [Example 6, 1-(4-(4-amino-1-isopropyl-1H-pyrazolo[3,4-d]pyrimidin-3-yl)-2-chlorophenyl)-3-(3-(tert-butyl)isoxazol-5-yl)urea], the IC50 – broadly, the point on the concentration scale where inhibition reaches its midpoint – was above 501 nM.

For the molecule `CC(C)(C)c1cc(NC(=O)Nc2ccc(-c3nn(C4CC(F)(F)C4)c4ncnc(N)c34)cc2F)on1` [Example 16, 1-(4-(4-amino-1-(3,3-difluorocyclobutyl)-1H-pyrazolo[3,4-d]pyrimidin-3-yl)-2-fluorophenyl)-3-(3-(tert-butyl)isoxazol-5-yl)urea], the IC50 was above 501 nM.

On to `CC(C)(F)c1cc(NC(=O)Nc2ccc(-c3nn(C4CC4)c4ncnc(N)c34)cc2F)on1` [Example 27, 1-(4-(4-amino-1-cyclopropyl-1H-pyrazolo[3,4-d]pyrimidin-3-yl)-2-fluorophenyl)-3-(3-(2-fluoropropan-2-yl)isoxazol-5-yl)urea], for which the IC50 is above 501 nM.

Turning to `Cn1nc(-c2ccc(NC(=O)Nc3cc(C(C)(C)C)no3)c(Cl)c2)c2c(N)ncnc21` [Example 28, 1-(4-(4-amino-1-methyl-1H-pyrazolo[3,4-d]pyrimidin-3-yl)-2-chlorophenyl)-3-(3-(tert-butyl)isoxazol-5-yl)urea], the IC50 is above 501 nM.

On to `CC(C)(C)c1cc(NC(=O)Nc2ccc(-c3nn(C4CC4)c4ccnc(N)c34)cc2)on1` [Example 31, 1-(4-(4-amino-1-cyclopropyl-1H-pyrazolo[4,3-c]pyridin-3-yl)phenyl)-3-(3-(tert-butyl)isoxazol-5-yl)urea], for which the IC50 was above 501 nM.

As for `CC(C)(C)c1csc(NC(=O)Nc2ccc(-c3nn(C4CC4)c4ncnc(N)c34)cc2F)n1` [Example 34, 1-(4-(4-amino-1-cyclopropyl-1H-pyrazolo[3,4-d]pyrimidin-3-yl)-2-fluorophenyl)-3-(4-(tert-butyl)thiazol-2-yl)urea], the IC50 is above 501 nM.

For `CC(C)(C)c1cc(NC(=O)Nc2ccc(-c3nn(C4CC4)c4ncnc(N)c34)cc2F)sn1` [Example 35, 1-(4-(4-amino-1-cyclopropyl-1H-pyrazolo[3,4-d]pyrimidin-3-yl)-2-fluorophenyl)-3-(3-(tert-butyl)isothiazol-5-yl)urea], the IC50 was above 501 nM.

Turning to `CC(C)(C)c1nnc(NC(=O)Nc2ccc(-c3nn(C4CC4)c4ncnc(N)c34)cc2F)o1` [Example 36, 1-(4-(4-amino-1-cyclopropyl-1H-pyrazolo[3,4-d]pyrimidin-3-yl)-2-fluorophenyl)-3-(5-(tert-butyl)-1,3,4-oxadiazol-2-yl)urea], the IC50 is above 501 nM.

With `CC(C)(C)c1nsc(NC(=O)Nc2ccc(-c3nn(C4CC4)c4ncnc(N)c34)cc2F)n1` [Example 37, 1-(4-(4-amino-1-cyclopropyl-1H-pyrazolo[3,4-d]pyrimidin-3-yl)-2-fluorophenyl)-3-(3-(tert-butyl)-1,2,4-thiadiazol-5-yl)urea], the IC50 is above 501 nM.

Consider `CC(C)(C)n1cnc(NC(=O)Nc2ccc(-c3nn(C4CC4)c4ncnc(N)c34)cc2F)n1` [Example 38, 1-(4-(4-amino-1-cyclopropyl-1H-pyrazolo[3,4-d]pyrimidin-3-yl)-2-fluorophenyl)-3-(1-(tert-butyl)-1H-1,2,4-triazol-3-yl)urea], for which the IC50 was above 501 nM.

Turning to `CCC(CC)c1cc(NC(=O)Nc2ccc(-c3nn(C4CC4)c4ncnc(N)c34)cc2F)on1` [Example 40, 1-(4-(4-amino-1-cyclopropyl-1H-pyrazolo[3,4-d]pyrimidin-3-yl)-2-fluorophenyl)-3-(3-(pentan-3-yl)isoxazol-5-yl)urea], the IC50 was 301 to 500 nM.

As for `CC(C)c1cc(NC(=O)Nc2ccc(-c3nn(C4CC4)c4ncnc(N)c34)cc2F)on1` [Example 41, 1-(4-(4-amino-1-cyclopropyl-1H-pyrazolo[3,4-d]pyrimidin-3-yl)-2-fluorophenyl)-3-(3-isopropylisoxazol-5-yl)urea], the half-maximal inhibitory concentration (IC50) is below 150 nM.

With `CCc1cc(NC(=O)Nc2ccc(-c3nn(C4CC4)c4ncnc(N)c34)cc2F)on1` [Example 42, 1-(4-(4-amino-1-cyclopropyl-1H-pyrazolo[3,4-d]pyrimidin-3-yl)-2-fluorophenyl)-3-(3-ethylisoxazol-5-yl)urea], the IC50 lay in the range of 151 to 300 nM.

In the case of `Nc1ncnc2c1c(-c1ccc(NC(=O)Nc3cc(C4(C(F)(F)F)CC4)no3)c(F)c1)nn2C1CC(O)C1` (stereo not drawn) [Example 46, 1-(4-(4-amino-1-(3-hydroxycyclobutyl)-1H-pyrazolo[3,4-d]pyrimidin-3-yl)-2-fluorophenyl)-3-(3-(1-(trifluoromethyl)cyclopropyl)isoxazol-5-yl)urea], the IC50 was below 150 nM.

Consider `CN1CC(n2nc(-c3ccc(NC(=O)Nc4cc(C5(C(F)(F)F)CC5)no4)c(F)c3)c3c(N)ncnc32)C1` [Example 49, 1-(4-(4-amino-1-(1-methylazetidin-3-yl)-1H-pyrazolo[3,4-d]pyrimidin-3-yl)-2-fluorophenyl)-3-(3-(1-(trifluoromethyl)cyclopropyl)isoxazol-5-yl)urea], for which the 50% inhibitory concentration (IC50) is above 501 nM.

As to `Nc1ncnc2c1c(-c1cc(F)c(NC(=O)Nc3cc(C4(C(F)(F)F)CC4)no3)cc1F)nn2C1CC1` [Example 50, 1-(4-(4-amino-1-cyclopropyl-1H-pyrazolo[3,4-d]pyrimidin-3-yl)-2,5-difluorophenyl)-3-(3-(1-(trifluoromethyl)cyclopropyl)isoxazol-5-yl)urea], the IC50 is 301 to 500 nM.

In the case of `CC(C)(C#N)c1cc(NC(=O)Nc2ccc(-c3nn(C4CC4)c4ncnc(N)c34)cc2F)on1` [Example 52, 1-(4-(4-amino-1-cyclopropyl-1H-pyrazolo[3,4-d]pyrimidin-3-yl)-2-fluorophenyl)-3-(3-(2-cyanopropan-2-yl)isoxazol-5-yl)urea], the IC50 is below 150 nM.

On to `Nc1ncnc2c1c(-c1ccc(NC(=O)Nc3cc(CO)no3)c(F)c1)nn2C1CC1` [Example 53, 1-(4-(4-amino-1-cyclopropyl-1H-pyrazolo[3,4-d]pyrimidin-3-yl)-2-fluorophenyl)-3-(3-(hydroxymethyl)isoxazol-5-yl)urea], for which the half-maximal inhibitory concentration (IC50) is above 501 nM.

For `Nc1nccc2c1c(-c1ccc(NC(=O)Nc3cc(C4(C(F)(F)F)CC4)no3)nc1)nn2C1CC1` [Example 54, 1-(5-(4-amino-1-cyclopropyl-1H-pyrazolo[4,3-c]pyridin-3-yl)pyridin-2-yl)-3-(3-(1-(trifluoromethyl)cyclopropyl)isoxazol-5-yl)urea], the half-maximal inhibitory concentration (IC50) lay in the range of 151 to 300 nM.

Consider `Nc1ncnc2c1c(-c1ccc(NC(=O)Nc3cc(C4(C(F)(F)F)CC4)no3)c(F)c1)nn2CCO` [Example 55, 1-(4-(4-amino-1-(2-hydroxyethyl)-1H-pyrazolo[3,4-d]pyrimidin-3-yl)-2-fluorophenyl)-3-(3-(1-(trifluoromethyl)cyclopropyl)isoxazol-5-yl)urea], for which the IC50 is below 150 nM.

In the case of `COCCn1nc(-c2ccc(NC(=O)Nc3cc(C4(C(F)(F)F)CC4)no3)c(F)c2)c2c(N)ncnc21` [Example 57, 1-(4-(4-amino-1-(2-methoxyethyl)-1H-pyrazolo[3,4-d]pyrimidin-3-yl)-2-fluorophenyl)-3-(3-(1-(trifluoromethyl)cyclopropyl)isoxazol-5-yl)urea], the IC50 was in the range of 151 to 300 nM.

Take `COCCn1nc(-c2ccc(NC(=O)Nc3cc(C4(C(F)(F)F)CC4)on3)c(F)c2)c2c(N)ncnc21` [Example 58, 1-(4-(4-amino-1-(2-methoxyethyl)-1H-pyrazolo[3,4-d]pyrimidin-3-yl)-2-fluorophenyl)-3-(5-(1-(trifluoromethyl)cyclopropyl)isoxazol-3-yl)urea]: the IC50 is 151 to 300 nM.

As to `Cc1cc(-c2nn(C3CC3)c3ncnc(N)c23)ccc1NC(=O)Nc1cc(C2(C(F)(F)F)CC2)on1` [Example 59, 1-(4-(4-amino-1-cyclopropyl-1H-pyrazolo[3,4-d]pyrimidin-3-yl)-2-methylphenyl)-3-(5-(1-(trifluoromethyl)cyclopropyl)isoxazol-3-yl)urea], the concentration for half-maximal inhibition (IC50) is above 501 nM.

Turning to `Nc1ncnc2c1c(-c1ccc(NC(=O)Nc3cc(C4(C(F)(F)F)CC4)on3)c(F)c1)nn2C1CC(O)C1` (stereo not drawn) [Example 60, 1-(4-(4-amino-1-(3-hydroxycyclobutyl)-1H-pyrazolo[3,4-d]pyrimidin-3-yl)-2-fluorophenyl)-3-(5-(1-(trifluoromethyl)cyclopropyl)isoxazol-3-yl)urea], the concentration for half-maximal inhibition (IC50) was below 150 nM.

`Nc1nccc2c1c(-c1ccc(NC(=O)Nc3cc(C4(C(F)(F)F)CC4)on3)c(F)c1)nn2C1CC1` [Example 61, 1-(4-(4-amino-1-cyclopropyl-1H-pyrazolo[4,3-c]pyridin-3-yl)-2-fluorophenyl)-3-(5-(1-(trifluoromethyl)cyclopropyl)isoxazol-3-yl)urea]: the concentration for half-maximal inhibition (IC50) was above 501 nM.

`Nc1ncnc2c1c(-c1cc(F)c(NC(=O)Nc3cc(C4(C(F)(F)F)CC4)on3)cc1F)nn2C1CC1` [Example 62, 1-(4-(4-amino-1-cyclopropyl-1H-pyrazolo[3,4-d]pyrimidin-3-yl)-2,5-difluorophenyl)-3-(5-(1-(trifluoromethyl)cyclopropyl)isoxazol-3-yl)urea]: the IC50 lay in the range of 301 to 500 nM.

As to `Nc1ncnc2c1c(-c1ccc(NC(=O)Nc3cc(C4(C(F)(F)F)CC4)on3)c(CO)c1)nn2C1CC1` [Example 63, 1-(4-(4-amino-1-cyclopropyl-1H-pyrazolo[3,4-d]pyrimidin-3-yl)-2-(hydroxymethyl)phenyl)-3-(5-(1-(trifluoromethyl)cyclopropyl)isoxazol-3-yl)urea], the IC50 was above 501 nM.
